Common to all, as to experiment: NCI-60 cell line screen, 48 h
The test system of assay [1] is HS 578T breast.
Assay [2] concerns UO-31 renal.
Assay [3] deals with COLO 205 colon.
The test system of assay [4] is SF-268 CNS.
Assay [5] relates to A498 renal.
The subject of assay [6] is HT29 colon.
Assay [7] deals with NCI-H226 lung.
In assay [8] the test system is RXF 393 renal.
For assay [9], the system named is IGROV1 ovarian.
Assay [10] has as its system SR leukemia.

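Values below derive from 48-hour exposures of cells grown in 96-well plates, with endpoints linearly interpolated between the two concentrations bracketing the appropriate inhibition level. GI50: concentration for 50% inhibition of growth. TGI denotes the concentration required for complete inhibition of growth.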 A value given as a limit tells only on which side of the number the result lay.

The source of these data is PubChem BioAssay (NCI).

Take `CCOC(=O)C1=C(C)NC2SC(=O)/C(=C\c3ccccc3O)N2C1c1ccccc1` (stereo not given): the GI50 was 17.4 µM in [1]; 21.9 µM in [2]; 23.2 µM in assay [3]; 29.7 µM in [4]; 11.1 µM in assay [5]; 19.5 µM in [6]. The GI50 was 29 µM in assay [7], 19 µM in assay [8] and 25 µM in [9]. In addition, the TGI was 50.2 µM in assay [1]; 66.8 µM in assay [2]; 72.8 µM in [3]; over 100 µM in assay [4]; 33.9 µM in assay [5]; 41.4 µM in assay [6]. In addition, the TGI in assay [7] came to 90.4 µM; in assay [8] it was 46.9 µM; in assay [9], 64.1 µM.

`Cc1cc(=O)[nH]o1`: the TGI in assay [1], in [2], in [3], in [4], in assay [6] and in [7] was over 100 µM in each case. In addition, the TGI in [8] and in [9] was over 100 µM each time.

As to `CC1(C)CCc2cc3c(cc2O1)OCC1c2cc4c(cc2OC31)OCO4` (stereo not given), the TGI in assay [2], in [3], in [4], in [5], in assay [10] and in assay [6] was over 100 µM throughout. Besides, the TGI in assay [7], in assay [8] and in assay [9] was over 100 µM throughout.

For `COC(=O)C1=C(C(=O)OC)C23CC1C1C(C(=O)OC)=C(C(=O)OC)C12C1C=CC3C2C(=O)OC(=O)C21` (stereo not given), the TGI in assay [2] was over 100 µM; in [3], 64.9 µM; in assay [4], over 100 µM; in assay [6], over 100 µM; in assay [8] it was over 100 µM; in assay [9] it was over 100 µM.

With `CC(=O)O[C@]1(C)OC(=O)[C@@H](C)N1[N+](=O)[O-]`, the TGI in assay [2], in [3], in assay [5], in [10], in assay [6] and in assay [7] was over 100 µM each time. Moreover, the TGI in assay [8] and in [9] was over 100 µM each time.

As to `O=C1c2ccccc2C(=O)c2c(NCCNCCO)ccc(O)c21`, the TGI in assay [2] was determined as 5.58 µM; in [3], 10.3 µM; in [4], 13.1 µM; in assay [5], 19.4 µM; in [6], 10.2 µM; in [7], 6.56 µM. The TGI worked out at 7.92 µM in assay [8] and 13.4 µM in assay [9].

For `NNC(=S)N/N=C(/C(=O)Nc1cc(Cl)ccc1Cl)C1C(=O)Nc2ccccc2S1=O` (stereo not given), the TGI in [2], in assay [3], in [4], in [5], in assay [10] and in assay [6] was over 100 µM each time. Moreover, the TGI in assay [7], in assay [8] and in [9] was over 100 µM in each case.

As for `CCOC(=O)C1=C(O)CSC1=Nc1ccccc1`, the TGI in assay [2], in assay [3], in assay [4], in [10], in assay [6] and in assay [7] was over 100 µM throughout. In assay [9], this compound yielded a TGI of over 100 µM.

Take `CCOc1cc2c(cc1O)/C(=N\O)C[C@@H]1[C@@H]2CC[C@]2(C)[C@@H](O)CC[C@@H]12`: the GI50 is 0.0271 µM in assay [1]; 0.984 µM in [2]; 0.00176 µM in assay [3]; 0.0884 µM in assay [4]; 0.604 µM in [5]; 3.94 µM in assay [6]. The figures for the GI50 in [7] and in assay [9] were 0.258 µM and 0.296 µM, respectively. Further, the TGI in assay [1] is over 82.9 µM; in assay [2] it was 46.1 µM; in assay [5], over 100 µM; in assay [6] it was over 100 µM; in assay [7] it was over 100 µM; in [8], over 100 µM. This compound also yielded a TGI in [9] of over 100 µM.

On to `C/C1=C/C2=CC(C)C[C@@H]2C(=O)[C@]2(C)C(=O)CC(C)(C)[C@H]2CC1=O` (stereo not given in full), for which the TGI in assay [1], in assay [2], in assay [3], in [4], in assay [5] and in [6] was over 50 µM throughout. Moreover, the TGI in assay [7] and in assay [9] was over 50 µM throughout.

`O=c1cccccc1NCCCCCCNc1cccccc1=O`: the TGI in assay [2], in [3], in assay [4], in assay [5], in assay [6] and in assay [7] was over 100 µM in each case. This compound showed a TGI in assay [9] of over 100 µM.

With `OCC1OC(OCC(O)C(O)C(O)C(/C=N/Nc2ccccc2)=N/Nc2ccccc2)C(O)C(O)C1O` (stereo not given), the TGI in [1], in assay [2], in [3], in [4], in [10] and in assay [6] was over 100 µM each time. This compound had a TGI in assay [9] of over 100 µM.

On to `COc1ccc2c(c1)[n+]([O-])c(-c1ccccc1)c(N)[n+]2[O-]`, for which the TGI is over 100 µM in assay [2]; 44.4 µM in assay [3]; over 100 µM in assay [4]; over 100 µM in assay [5]; over 100 µM in assay [6]; over 100 µM in [7]. Moreover, the TGI in assay [9] was over 100 µM.

Take `O=C1OCCC1C(O)C1c2ccccc2-c2ccccc21` (stereo not given): the TGI in assay [2], in [3], in [4], in assay [5], in [10] and in [6] was over 100 µM throughout. Moreover, the TGI in assay [7] and in assay [9] was over 100 µM throughout.
